According to PubChem BioAssay (NCI):
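Step 1: Grow cells in 96-well plates. Step 2: Expose to compound for 48 hours at 5 concentrations. Step 3: Interpolate endpoints linearly; if unreached, use highest concentration. GI50: concentration for 50% inhibition of growth. TGI: total growth inhibition.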

What was measured:
Experiment in all cases: NCI tumour cell line growth inhibition, 48 h
KM12 colon = tested on: KM12 colon
U251 CNS = tested on: U251 CNS
IGROV1 ovarian = tested on: IGROV1 ovarian
NCI-H23 lung = tested on: NCI-H23 lung
HT29 colon = tested on: HT29 colon
CCRF-CEM leukemia = tested on: CCRF-CEM leukemia
OVCAR-3 ovarian = tested on: OVCAR-3 ovarian
SNB-75 CNS = tested on: SNB-75 CNS
HOP-62 NSCLC = tested on: HOP-62 NSCLC
SNB-19 CNS = tested on: SNB-19 CNS
HL-60(TB) leukemia = tested on: HL-60(TB) leukemia
MCF7 breast = tested on: MCF7 breast
HCT-116 colon = tested on: HCT-116 colon
SF-268 CNS = tested on: SF-268 CNS
SK-MEL-28 melanoma = tested on: SK-MEL-28 melanoma
MDA-MB-435 = tested on: MDA-MB-435
RPMI-8226 leukemia = tested on: RPMI-8226 leukemia
NCI-H226 lung = tested on: NCI-H226 lung
NCI/ADR-RES ovarian = tested on: NCI/ADR-RES ovarian
TK-10 renal = tested on: TK-10 renal
SN12C renal = tested on: SN12C renal
MALME-3M melanoma = tested on: MALME-3M melanoma
CAKI-1 renal = tested on: CAKI-1 renal
UACC-62 melanoma = tested on: UACC-62 melanoma
OVCAR-5 ovarian = tested on: OVCAR-5 ovarian
A549 NSCLC = tested on: A549 NSCLC
DU-145 prostate = tested on: DU-145 prostate
HCT-15 colon = tested on: HCT-15 colon
UO-31 renal = tested on: UO-31 renal
NCI-H460 lung = tested on: NCI-H460 lung
OVCAR-4 ovarian = tested on: OVCAR-4 ovarian
BT-549 breast = tested on: BT-549 breast
T-47D breast = tested on: T-47D breast
SF-295 CNS = tested on: SF-295 CNS
OVCAR-8 ovarian = tested on: OVCAR-8 ovarian
PC-3 prostate = tested on: PC-3 prostate
HCC-2998 colon = tested on: HCC-2998 colon
NCI-H522 lung = tested on: NCI-H522 lung
COLO 205 colon = tested on: COLO 205 colon
M14 melanoma = tested on: M14 melanoma
MOLT-4 leukemia = tested on: MOLT-4 leukemia
MDA-MB-231 breast = tested on: MDA-MB-231 breast
SK-OV-3 ovarian = tested on: SK-OV-3 ovarian
SR leukemia = tested on: SR leukemia
A498 renal = tested on: A498 renal
EKVX NSCLC = tested on: EKVX NSCLC
SF-539 CNS = tested on: SF-539 CNS
786-0 renal = tested on: 786-0 renal
HS 578T breast = tested on: HS 578T breast
SK-MEL-2 melanoma = tested on: SK-MEL-2 melanoma
K-562 leukemia = tested on: K-562 leukemia
HOP-92 NSCLC = tested on: HOP-92 NSCLC
ACHN renal = tested on: ACHN renal
LOX IMVI melanoma = tested on: LOX IMVI melanoma
UACC-257 melanoma = tested on: UACC-257 melanoma
RXF 393 renal = tested on: RXF 393 renal
SW-620 colon = tested on: SW-620 colon
SK-MEL-5 melanoma = tested on: SK-MEL-5 melanoma

`COc1cc(Nc2ncc3c(C)nc(-c4cccc(C(F)(F)F)c4)n3n2)cc(OC)c1OC` was tested, and the GI50 (KM12 colon) was 3.05 µM, the TGI (KM12 colon) was 6.23 µM and the GI50 (U251 CNS) was 3.71 µM. The TGI (U251 CNS) was 7.06 µM, the GI50 (IGROV1 ovarian) was 3.49 µM and the TGI (IGROV1 ovarian) was 11.2 µM. The GI50 (NCI-H23 lung) was 4.07 µM, the TGI (NCI-H23 lung) was 8.61 µM and the GI50 (HT29 colon) was 4.15 µM. It also gave a TGI (HT29 colon) of 7.69 µM, a GI50 (CCRF-CEM leukemia) of 5.87 µM and a TGI (CCRF-CEM leukemia) of 19 µM. It also gave a GI50 (OVCAR-3 ovarian) of 4.28 µM, a TGI (OVCAR-3 ovarian) of 7.72 µM and a GI50 (SNB-75 CNS) of 3.09 µM. For the same compound, the TGI (SNB-75 CNS) was 8.42 µM, the GI50 (HOP-62 NSCLC) was 3.84 µM and the TGI (HOP-62 NSCLC) was 7.51 µM. The GI50 (SNB-19 CNS) was 4.64 µM, the TGI (SNB-19 CNS) was 8.51 µM and the GI50 (HL-60(TB) leukemia) was 6.91 µM. For the same compound, the TGI (HL-60(TB) leukemia) was 16 µM, the GI50 (MCF7 breast) was 4.14 µM and the TGI (MCF7 breast) was 7.82 µM. The GI50 (HCT-116 colon) was 3.49 µM, the TGI (HCT-116 colon) was 6.73 µM and the GI50 (SF-268 CNS) was 4.19 µM. The TGI (SF-268 CNS) was 8.1 µM, the GI50 (SK-MEL-28 melanoma) was 4.44 µM and the TGI (SK-MEL-28 melanoma) was 8.25 µM. It also gave a GI50 (MDA-MB-435) of 2.58 µM, a TGI (MDA-MB-435) of 5.78 µM and a GI50 (RPMI-8226 leukemia) of 6.45 µM. It also gave a TGI (RPMI-8226 leukemia) of 19.7 µM, a GI50 (NCI-H226 lung) of 4.14 µM and a TGI (NCI-H226 lung) of 7.72 µM. For the same compound, the GI50 (NCI/ADR-RES ovarian) was 4.23 µM, the TGI (NCI/ADR-RES ovarian) was 11 µM and the GI50 (TK-10 renal) was 2.98 µM. For the same compound, the TGI (TK-10 renal) was 6.19 µM, the GI50 (SN12C renal) was 3.54 µM and the TGI (SN12C renal) was 7.14 µM. The GI50 (MALME-3M melanoma) was 4.39 µM, the TGI (MALME-3M melanoma) was 9.17 µM and the GI50 (CAKI-1 renal) was 0.747 µM. For the same compound, the TGI (CAKI-1 renal) was 13.6 µM, the GI50 (UACC-62 melanoma) was 3.15 µM and the TGI (UACC-62 melanoma) was 6.34 µM. The GI50 (OVCAR-5 ovarian) was 3.65 µM, the TGI (OVCAR-5 ovarian) was 7.5 µM and the GI50 (A549 NSCLC) was 3.51 µM. For the same compound, the TGI (A549 NSCLC) was 6.98 µM, the GI50 (DU-145 prostate) was 3.13 µM and the TGI (DU-145 prostate) was 6.26 µM. For the same compound, the GI50 (HCT-15 colon) was 3.78 µM, the TGI (HCT-15 colon) was 8.2 µM and the GI50 (UO-31 renal) was 1.82 µM. For the same compound, the TGI (UO-31 renal) was 6.18 µM, the GI50 (NCI-H460 lung) was 4.46 µM and the TGI (NCI-H460 lung) was 13.6 µM. The GI50 (OVCAR-4 ovarian) was 4.48 µM, the TGI (OVCAR-4 ovarian) was 9.81 µM and the GI50 (BT-549 breast) was 4.05 µM. The TGI (BT-549 breast) was 8.03 µM, the GI50 (T-47D breast) was 2.95 µM and the TGI (T-47D breast) was 6.58 µM. It also gave a GI50 (SF-295 CNS) of 3.86 µM, a TGI (SF-295 CNS) of 8.15 µM and a GI50 (OVCAR-8 ovarian) of 4.09 µM. For the same compound, the TGI (OVCAR-8 ovarian) was 8.91 µM, the GI50 (PC-3 prostate) was 4.32 µM and the TGI (PC-3 prostate) was 10.6 µM. It also gave a GI50 (HCC-2998 colon) of 4.01 µM, a TGI (HCC-2998 colon) of 7.86 µM and a GI50 (NCI-H522 lung) of 4.18 µM. It also gave a TGI (NCI-H522 lung) of 8.12 µM, a GI50 (COLO 205 colon) of 4.07 µM and a TGI (COLO 205 colon) of 7.49 µM. It also gave a GI50 (M14 melanoma) of 4.03 µM, a TGI (M14 melanoma) of 8.07 µM and a GI50 (MOLT-4 leukemia) of 6.85 µM. The TGI (MOLT-4 leukemia) was 15.4 µM, the GI50 (MDA-MB-231 breast) was 3.33 µM and the TGI (MDA-MB-231 breast) was 6.97 µM. The GI50 (SK-OV-3 ovarian) was 2.24 µM, the TGI (SK-OV-3 ovarian) was 6.86 µM and the GI50 (SR leukemia) was 6.36 µM. The TGI (SR leukemia) was 17.5 µM, the GI50 (A498 renal) was 0.305 µM and the TGI (A498 renal) was 5.86 µM. The GI50 (EKVX NSCLC) was 4.19 µM, the TGI (EKVX NSCLC) was 8 µM and the GI50 (SF-539 CNS) was 3.98 µM. For the same compound, the TGI (SF-539 CNS) was 8.34 µM, the GI50 (786-0 renal) was 3.96 µM and the TGI (786-0 renal) was 7.92 µM. For the same compound, the GI50 (HS 578T breast) was 3.77 µM, the TGI (HS 578T breast) was 13.6 µM and the GI50 (SK-MEL-2 melanoma) was 3.25 µM. For the same compound, the TGI (SK-MEL-2 melanoma) was 7.28 µM, the GI50 (K-562 leukemia) was 6.62 µM and the TGI (K-562 leukemia) was 19.6 µM. For the same compound, the GI50 (HOP-92 NSCLC) was 1.74 µM, the TGI (HOP-92 NSCLC) was 5.99 µM and the GI50 (ACHN renal) was 1.95 µM. For the same compound, the TGI (ACHN renal) was 5.78 µM, the GI50 (LOX IMVI melanoma) was 3.74 µM and the TGI (LOX IMVI melanoma) was 7.58 µM. For the same compound, the GI50 (UACC-257 melanoma) was 3.88 µM, the TGI (UACC-257 melanoma) was 7.46 µM and the GI50 (RXF 393 renal) was 1.81 µM. The TGI (RXF 393 renal) was 5.42 µM, the GI50 (SW-620 colon) was 3.72 µM and the TGI (SW-620 colon) was 7.62 µM. For the same compound, the GI50 (SK-MEL-5 melanoma) was 3.32 µM and the TGI (SK-MEL-5 melanoma) was 6.51 µM.
